Measured values from ChEMBL document CHEMBL5506042, “Discovery of the Clinical Candidate IDOR-1117-2520: A Potent and Selective Antagonist of CCR6 for Autoimmune Diseases” (J Med Chem, 2024).
Each block holds one compound with its values, some of them ahead of it.

What was measured:
[1] = Intrinsic clearance in human liver microsomes at 1 uM measured for 15 mins in presence of NADPH regenerating system measured per mg protein by LC-MS/MS analysis; type: ADME, Microsome; details: read-out: CLH
[2] = molecular target: T1, C-C chemokine receptor type 6 (Homo sapiens, UniProt P51684); assay: Antagonist activity at human CCR6 expressed in HEK293 cells assessed as inhibition of CCL20-stimulated intracellular calcium mobilization by Fluo-8-AM based FLIPR analysis
T1 sequence (P51684 whole entry): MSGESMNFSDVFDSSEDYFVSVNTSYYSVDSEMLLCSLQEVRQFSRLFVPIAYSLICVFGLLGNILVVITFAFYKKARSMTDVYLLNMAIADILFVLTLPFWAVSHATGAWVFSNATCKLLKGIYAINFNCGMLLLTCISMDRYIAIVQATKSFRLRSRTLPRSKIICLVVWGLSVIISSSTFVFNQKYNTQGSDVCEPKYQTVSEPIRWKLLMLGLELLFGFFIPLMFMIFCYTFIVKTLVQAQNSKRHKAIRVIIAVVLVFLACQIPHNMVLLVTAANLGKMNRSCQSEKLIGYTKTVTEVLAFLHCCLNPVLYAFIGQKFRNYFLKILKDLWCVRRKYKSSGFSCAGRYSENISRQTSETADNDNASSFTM

[3] = molecular target: Voltage-gated inwardly rectifying potassium channel KCNH2 (Homo sapiens, UniProt Q12809); assay: Inhibition of hERG expressed in CHO cells assessed as inhibition of channel current at holding potential of -80 mV by QPatch assay
[4] = Drug metabolism in human liver microsomes assessed as dGSH trapping by measuring reactive metabolite formation at 10 uM measured after 60 mins in presence of dGSH and NADPH regenerating system by LC-MS/MS analysis; type: ADME, Microsome; details: 1 h
[5] = Cytotoxicity against human HepG2 cells assessed as reduction in cell viability incubated for 72 hrs by CellTiter-Glo assay
[6] = Dissociation constant, pKa of the compound by potentiometric titration based UV-Vis spectrophotometry
[7] = Lipophilicity, LogD of the compound in 1-Octanol/PBS at pH 7.4 by miniaturized shake flask method
[8] = tested on: HepaRG; assay: Cytotoxicity against human HepaRG cells assessed as leakage of intracellular LDH at 100 uM incubated for 24 hrs by spectrophotometry; type: toxicity, cell-based

Chain of Voltage-gated inwardly rectifying potassium channel KCNH2 (Q12809 whole entry): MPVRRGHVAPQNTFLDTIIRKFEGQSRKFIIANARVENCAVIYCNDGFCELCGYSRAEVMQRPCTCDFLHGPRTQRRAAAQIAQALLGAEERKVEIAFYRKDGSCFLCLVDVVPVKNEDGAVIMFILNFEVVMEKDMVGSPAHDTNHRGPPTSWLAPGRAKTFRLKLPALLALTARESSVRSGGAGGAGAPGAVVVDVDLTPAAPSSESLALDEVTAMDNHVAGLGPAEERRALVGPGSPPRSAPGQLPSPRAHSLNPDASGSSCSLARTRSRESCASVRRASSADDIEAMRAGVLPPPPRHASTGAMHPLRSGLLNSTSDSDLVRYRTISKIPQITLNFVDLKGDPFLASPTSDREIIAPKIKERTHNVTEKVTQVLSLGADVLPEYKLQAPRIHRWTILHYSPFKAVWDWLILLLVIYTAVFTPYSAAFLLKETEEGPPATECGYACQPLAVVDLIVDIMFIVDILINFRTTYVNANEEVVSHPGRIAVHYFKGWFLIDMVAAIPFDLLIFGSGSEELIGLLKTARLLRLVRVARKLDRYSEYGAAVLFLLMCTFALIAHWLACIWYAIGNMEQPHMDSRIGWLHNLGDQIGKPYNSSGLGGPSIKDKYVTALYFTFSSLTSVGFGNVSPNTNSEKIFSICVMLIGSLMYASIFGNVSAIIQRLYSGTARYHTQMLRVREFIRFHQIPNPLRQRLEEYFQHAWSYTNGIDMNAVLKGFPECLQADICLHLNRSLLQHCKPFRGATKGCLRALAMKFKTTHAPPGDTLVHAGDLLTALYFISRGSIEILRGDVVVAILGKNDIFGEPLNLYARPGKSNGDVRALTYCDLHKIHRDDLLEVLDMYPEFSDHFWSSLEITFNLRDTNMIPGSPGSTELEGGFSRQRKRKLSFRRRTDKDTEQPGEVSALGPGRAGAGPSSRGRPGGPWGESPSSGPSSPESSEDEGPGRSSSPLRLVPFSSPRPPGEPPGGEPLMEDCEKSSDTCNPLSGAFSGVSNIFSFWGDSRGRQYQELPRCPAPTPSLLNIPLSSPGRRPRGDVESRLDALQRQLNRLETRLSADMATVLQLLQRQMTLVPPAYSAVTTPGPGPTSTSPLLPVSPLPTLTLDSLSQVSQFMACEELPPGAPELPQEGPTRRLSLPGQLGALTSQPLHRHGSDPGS

Compound: CC(C)c1ccc([C@](O)(c2cccc(-c3noc(C(C)(O)C(F)(F)F)n3)c2)C2(C)CN(C)C2)cc1 (stereo partly specified)
microsomal CLint at […], 1 µM [1]: 15 µL/min/mg

Compound: CC(C)c1ccc([C@](O)(c2cncc(N3CC[C@H](C(C)(C)O)C3)c2)C2(C)CN(C)C2)cc1
Drug metabolism [4]: < 100 pmol/mg/h

Compound: CC(C)c1ccc([C@](O)(c2cncc(N3CCCC3)c2)C2(C)CN(C)C2)cc1
Drug metabolism [4]: 162 pmol/mg/h

Compound: CC(C)c1ccc([C@](O)(c2cncc(N3CC[C@H](O)C3)c2)C2(C)CN(C)C2)cc1
Drug metabolism [4]: 504 pmol/mg/h

Compound: CC(C)c1ccc([C@](O)(c2cccc(-c3noc(C4CCOCC4)n3)c2)C2(C)CN(C)C2)cc1
microsomal CLint at […], 1 µM [1]: 26 µL/min/mg
Drug metabolism [4]: 167 pmol/mg/h

Compound: CC(C)c1ccc([C@](O)(c2cncc(N3CCCC3=O)c2)C2(C)CN(C)C2)cc1
Drug metabolism [4]: < 100 pmol/mg/h

Compound: CC(C)c1ccc([C@](O)(c2cncc(N3CC[C@](C)(O)C3)c2)C2(C)CN(C)C2)cc1
Drug metabolism [4]: 392 pmol/mg/h

Compound: CC(C)c1ccc([C@](O)(c2cncc(N3C[C@@H](F)[C@@H](F)C3)c2)C2(C)CN(C)C2)cc1
Drug metabolism [4]: < 100 pmol/mg/h

Compound: CC(C)c1ccc([C@](O)(c2cnnc(N3CCCC3)c2)C2(C)CN(C)C2)cc1
microsomal CLint at […], 1 µM [1]: 475 µL/min/mg
Drug metabolism [4]: 323 pmol/mg/h

Compound: CC(C)c1ccc([C@](O)(c2cccc(-c3noc(CC(C)(C)O)n3)c2)C2(C)CN(C)C2)cc1
microsomal CLint at […], 1 µM [1]: 20 µL/min/mg

Compound: CC(C)c1ccc([C@](O)(c2cncc(N3CC4CC(C3)O4)c2)C2(C)CN(C)C2)cc1
microsomal CLint at […], 1 µM [1]: 20 µL/min/mg
Drug metabolism [4]: < 100 pmol/mg/h

Compound: CC(C)c1ccc([C@](O)(c2cccc(-c3noc(C4(O)CCC4)n3)c2)C2(C)CN(C)C2)cc1
microsomal CLint at […], 1 µM [1]: 35 µL/min/mg

Compound: CC(C)c1ccc([C@](O)(c2cncc(N3CC[C@@H](O)C3)c2)C2(C)CN(C)C2)cc1
Drug metabolism [4]: 541 pmol/mg/h

Compound: CC(C)c1ccc([C@](O)(c2cnnc(N3CC4(CC4)CC3=O)c2)C2(C)CN(C)C2)cc1
microsomal CLint at […], 1 µM [1]: < 10 µL/min/mg
Drug metabolism [4]: < 100 pmol/mg/h

Compound: CC(C)c1ccc([C@](O)(c2cncc(N3CCOCC3)c2)C2(C)CN(C)C2)cc1
microsomal CLint at […], 1 µM [1]: 138 µL/min/mg
Drug metabolism [4]: 1021 pmol/mg/h

Compound: CN1CC(C)(C(O)(c2ccc(OC(F)(F)F)cc2)c2cnnc(N3CCCC3)c2)C1 (racemic)
IC50 at 72 h [5]: > 25 µM

Compound: CC(C)COc1cccc(C(O)(c2ccc(OC(F)(F)F)cc2)C2(C)CN(C)C2)c1 (racemic)
IC50 at 72 h [5]: 10 µM

Compound: CN1CC(C)(C(O)(c2ccc(OC(F)(F)F)cc2)c2cccc(N3CCCC3)c2)C1 (racemic)
IC50 at 72 h [5]: 5 µM

Compound: COc1cccc(C(O)(c2ccc(OC(F)(F)F)cc2)C2(C)CN(C)C2)c1 (racemic)
IC50 at 72 h [5]: > 25 µM
IC50 [3]: 0.22 µM

Compound: COc1cncc(C(O)(c2ccc(OC(F)(F)F)cc2)C2(C)CN(C)C2)c1 (racemic)
IC50 at 72 h [5]: > 25 µM

Compound: CN1CC(C)(C(O)(c2ccc(OC(F)(F)F)cc2)c2ccnc(N3CCCC3)c2)C1 (racemic)
IC50 at 72 h [5]: 9.2 µM

Compound: CC(C)c1ccc(C(O)(c2cccc(N3CCCC3)n2)C2(C)CN(C)C2)cc1 (racemic)
IC50 [2]: 1.21 µM

Compound: CN1CC(C)(C(O)(c2ccc(Cl)cc2)c2ccc(OC(F)(F)F)cc2)C1 (racemic)
IC50 at 72 h [5]: 9.4 µM

Compound: CC(C)c1ccc(C(O)(c2cccc(-c3nc(C4CCOCC4)no3)c2)C2(C)CN(C)C2)cc1 (single isomer, unassigned)
microsomal CLint at […], 1 µM [1]: 68 µL/min/mg

Further lines, with some results ahead:

IC50 [2]: > 20 µM
Compound: CC(=O)N1CC(C)(C(O)(c2ccccc2)c2ccc(OC(F)(F)F)cc2)C1 (stereo unspecified)
IC50 [3]: > 20 µM

IC50 [2]: 1.44 µM
Compound: CN1CCC(C)(C(O)(c2ccccc2)c2ccc(OC(F)(F)F)cc2)C1 (stereo unspecified)

IC50 [2]: > 20 µM
Compound: CCCC1(C(O)(c2ccccc2)c2ccc(OC(F)(F)F)cc2)CN(C)C1 (stereo unspecified)

IC50 [2]: 9.29 µM
Compound: CN1CC(C(O)(c2ccccc2)c2ccc(OC(F)(F)F)cc2)C1 (stereo unspecified)
IC50 [3]: 0.52 µM

IC50 [2]: 0.763 µM
pKa [6]: 6.4
Compound: CN1CC(C#N)(C(O)(c2ccc(OC(F)(F)F)cc2)c2cccc(Cl)c2)C1 (racemic)

logD [7]: > 4.1
pKa [6]: 7.9
Compound: CN1CC(F)(C(O)(c2ccc(OC(F)(F)F)cc2)c2cccc(Cl)c2)C1 (racemic)
IC50 [3]: 0.19 µM

IC50 [2]: 3.52 µM
logD [7]: 2.1
pKa [6]: 9.1
Compound: CN1CC(CO)(C(O)(c2ccc(OC(F)(F)F)cc2)c2cccc(Cl)c2)C1 (racemic)
IC50 [3]: 0.56 µM

IC50 [2]: 2.06 µM
logD [7]: 2.7
pKa [6]: 8.8
Compound: CN1CC(O)(C(O)(c2ccc(OC(F)(F)F)cc2)c2cccc(Cl)c2)C1 (racemic)
IC50 [3]: 1.9 µM

IC50 [2]: 8.8 µM
Compound: CN1CC(C)(C(O)(c2ccc(OC(F)(F)F)cc2)c2ccccc2Cl)C1 (racemic)

IC50 [2]: 1.66 µM
pKa [6]: 8.1
Compound: CN1CC(C(N)=O)(C(O)(c2ccc(OC(F)(F)F)cc2)c2cccc(Cl)c2)C1 (racemic)
IC50 [3]: 3.3 µM

logD [7]: 1.9
Compound: CCOc1cncc(C(O)(c2ccc(OC(F)(F)F)cc2)C2(C)CN(C)C2)c1 (racemic)
IC50 at 72 h [5]: > 25 µM
Activity [8]: Non-Toxic
